Reference: PubChem BioAssay (NCI)
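How tested: cells in 96-well plates exposed to compound for 48 hours at five concentrations. The concentration for full growth arrest is given as TGI.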

Legend:
Test in all cases: NCI anticancer screen, dose series, 48 h
IGROV1 ovarian = tested on: IGROV1 ovarian
SF-539 CNS = tested on: SF-539 CNS
MOLT-4 leukemia = tested on: MOLT-4 leukemia
TK-10 renal = tested on: TK-10 renal
MDA-MB-231 breast = tested on: MDA-MB-231 breast
SK-MEL-5 melanoma = tested on: SK-MEL-5 melanoma
DU-145 prostate = tested on: DU-145 prostate
SK-OV-3 ovarian = tested on: SK-OV-3 ovarian
786-0 renal = tested on: 786-0 renal
HL-60(TB) leukemia = tested on: HL-60(TB) leukemia
NCI-H226 lung = tested on: NCI-H226 lung
SK-MEL-2 melanoma = tested on: SK-MEL-2 melanoma
U251 CNS = tested on: U251 CNS
NCI-H522 lung = tested on: NCI-H522 lung
HCC-2998 colon = tested on: HCC-2998 colon
HOP-62 NSCLC = tested on: HOP-62 NSCLC
SW-620 colon = tested on: SW-620 colon
OVCAR-4 ovarian = tested on: OVCAR-4 ovarian
BT-549 breast = tested on: BT-549 breast
COLO 205 colon = tested on: COLO 205 colon
HCT-116 colon = tested on: HCT-116 colon
RPMI-8226 leukemia = tested on: RPMI-8226 leukemia
EKVX NSCLC = tested on: EKVX NSCLC
MDA-N = tested on: MDA-N
SNB-75 CNS = tested on: SNB-75 CNS
RXF 393 renal = tested on: RXF 393 renal
OVCAR-3 ovarian = tested on: OVCAR-3 ovarian
M14 melanoma = tested on: M14 melanoma
SF-295 CNS = tested on: SF-295 CNS
SNB-19 CNS = tested on: SNB-19 CNS
UACC-257 melanoma = tested on: UACC-257 melanoma
LOX IMVI melanoma = tested on: LOX IMVI melanoma
NCI/ADR-RES ovarian = tested on: NCI/ADR-RES ovarian
OVCAR-5 ovarian = tested on: OVCAR-5 ovarian
UO-31 renal = tested on: UO-31 renal
MALME-3M melanoma = tested on: MALME-3M melanoma
SR leukemia = tested on: SR leukemia
OVCAR-8 ovarian = tested on: OVCAR-8 ovarian
HS 578T breast = tested on: HS 578T breast
A498 renal = tested on: A498 renal
NCI-H460 lung = tested on: NCI-H460 lung
MCF7 breast = tested on: MCF7 breast
K-562 leukemia = tested on: K-562 leukemia
HT29 colon = tested on: HT29 colon
ACHN renal = tested on: ACHN renal
T-47D breast = tested on: T-47D breast
A549 NSCLC = tested on: A549 NSCLC
MDA-MB-435 = tested on: MDA-MB-435
CAKI-1 renal = tested on: CAKI-1 renal
SK-MEL-28 melanoma = tested on: SK-MEL-28 melanoma
SN12C renal = tested on: SN12C renal
KM12 colon = tested on: KM12 colon
PC-3 prostate = tested on: PC-3 prostate
CCRF-CEM leukemia = tested on: CCRF-CEM leukemia
NCI-H23 lung = tested on: NCI-H23 lung
HCT-15 colon = tested on: HCT-15 colon
HOP-92 NSCLC = tested on: HOP-92 NSCLC
UACC-62 melanoma = tested on: UACC-62 melanoma
SF-268 CNS = tested on: SF-268 CNS

Compound: OCCN1CCN(c2nc(N3CCCC3)c3nc(Cl)c(NCc4ccccc4)nc3n2)CC1
- TGI (IGROV1 ovarian): 23.1 µM
- TGI (SF-539 CNS): 13.6 µM
- TGI (MOLT-4 leukemia): 15.3 µM
- TGI (TK-10 renal): 19.2 µM
- TGI (MDA-MB-231 breast): 25 µM
- TGI (SK-MEL-5 melanoma): 7.82 µM
- TGI (DU-145 prostate): 23.6 µM
- TGI (SK-OV-3 ovarian): 27.5 µM
- TGI (786-0 renal): 4.23 µM
- TGI (HL-60(TB) leukemia): 11.8 µM
- TGI (NCI-H226 lung): 37.8 µM
- TGI (SK-MEL-2 melanoma): 16.8 µM
- TGI (U251 CNS): 18.2 µM
- TGI (NCI-H522 lung): 18.7 µM
- TGI (HCC-2998 colon): 3.56 µM
- TGI (HOP-62 NSCLC): 8.98 µM
- TGI (SW-620 colon): 17.5 µM
- TGI (OVCAR-4 ovarian): 25.4 µM
- TGI (BT-549 breast): 20.7 µM
- TGI (COLO 205 colon): 6.73 µM
- TGI (HCT-116 colon): 17.6 µM
- TGI (RPMI-8226 leukemia): 8.35 µM
- TGI (EKVX NSCLC): 25 µM
- TGI (MDA-N): 8.47 µM
- TGI (SNB-75 CNS): 8.67 µM
- TGI (RXF 393 renal): 3.68 µM
- TGI (OVCAR-3 ovarian): 23.5 µM
- TGI (M14 melanoma): 7.24 µM
- TGI (SF-295 CNS): 13.4 µM
- TGI (SNB-19 CNS): 21.3 µM
- TGI (UACC-257 melanoma): 9.79 µM
- TGI (LOX IMVI melanoma): 10.6 µM
- TGI (NCI/ADR-RES ovarian): 26.7 µM
- TGI (OVCAR-5 ovarian): 26.6 µM
- TGI (UO-31 renal): 11.5 µM
- TGI (MALME-3M melanoma): 11.7 µM
- TGI (SR leukemia): 15.2 µM
- TGI (OVCAR-8 ovarian): 23.5 µM
- TGI (HS 578T breast): 31 µM
- TGI (A498 renal): 25 µM
- TGI (NCI-H460 lung): 18.1 µM
- TGI (MCF7 breast): 17.2 µM
- TGI (K-562 leukemia): 22 µM
- TGI (HT29 colon): 10.6 µM
- TGI (ACHN renal): 20.7 µM
- TGI (T-47D breast): 17.4 µM
- TGI (A549 NSCLC): 21.4 µM
- TGI (MDA-MB-435): 10.7 µM
- TGI (CAKI-1 renal): 23.7 µM
- TGI (SK-MEL-28 melanoma): 9.08 µM
- TGI (SN12C renal): 24.2 µM
- TGI (KM12 colon): 15.8 µM
- TGI (PC-3 prostate): 22.8 µM
- TGI (CCRF-CEM leukemia): 11.7 µM
- TGI (NCI-H23 lung): 29.4 µM
- TGI (HCT-15 colon): 7.91 µM
- TGI (HOP-92 NSCLC): 16.8 µM
- TGI (UACC-62 melanoma): 9.26 µM
- TGI (SF-268 CNS): 23.2 µM

Compound: O=c1[nH]c2c(Nc3c4ccccc4nc4ccccc34)c([N+](=O)[O-])c(Nc3c4ccccc4nc4ccccc34)c([N+](=O)[O-])c2[nH]1
- TGI (IGROV1 ovarian): 5.18 µM
- TGI (SF-539 CNS): 18.6 µM
- TGI (MOLT-4 leukemia): 2.39 µM
- TGI (TK-10 renal): > 22.5 µM
- TGI (MDA-MB-231 breast): 4.92 µM
- TGI (SK-MEL-5 melanoma): 4 µM
- TGI (DU-145 prostate): 11.5 µM
- TGI (SK-OV-3 ovarian): 18.4 µM
- TGI (786-0 renal): > 28.4 µM
- TGI (HL-60(TB) leukemia): > 23.7 µM
- TGI (NCI-H226 lung): 6.3 µM
- TGI (SK-MEL-2 melanoma): 3.93 µM
- TGI (U251 CNS): 8.35 µM
- TGI (NCI-H522 lung): 2.82 µM
- TGI (HCC-2998 colon): 3.5 µM
- TGI (HOP-62 NSCLC): 20.2 µM
- TGI (SW-620 colon): > 100 µM
- TGI (OVCAR-4 ovarian): 10.1 µM
- TGI (BT-549 breast): 20.6 µM
- TGI (COLO 205 colon): 5.02 µM
- TGI (HCT-116 colon): 8.45 µM
- TGI (RPMI-8226 leukemia): 8.27 µM
- TGI (EKVX NSCLC): 5.2 µM
- TGI (MDA-N): 8.49 µM
- TGI (SNB-75 CNS): 7.79 µM
- TGI (RXF 393 renal): 7.19 µM
- TGI (OVCAR-3 ovarian): 6.87 µM
- TGI (M14 melanoma): 4.76 µM
- TGI (SF-295 CNS): 12.8 µM
- TGI (SNB-19 CNS): 13.7 µM
- TGI (UACC-257 melanoma): 10.4 µM
- TGI (LOX IMVI melanoma): 7.79 µM
- TGI (NCI/ADR-RES ovarian): 2.24 µM
- TGI (OVCAR-5 ovarian): 5.02 µM
- TGI (UO-31 renal): 2.76 µM
- TGI (MALME-3M melanoma): 3.33 µM
- TGI (SR leukemia): 4.07 µM
- TGI (OVCAR-8 ovarian): 12.6 µM
- TGI (HS 578T breast): 7.12 µM
- TGI (A498 renal): 3.35 µM
- TGI (NCI-H460 lung): > 22.5 µM
- TGI (MCF7 breast): 10.2 µM
- TGI (K-562 leukemia): 11.7 µM
- TGI (HT29 colon): 3.11 µM
- TGI (ACHN renal): 4.78 µM
- TGI (T-47D breast): > 39.1 µM
- TGI (A549 NSCLC): 3.56 µM
- TGI (MDA-MB-435): 7.29 µM
- TGI (CAKI-1 renal): 6.69 µM
- TGI (SK-MEL-28 melanoma): 11.3 µM
- TGI (SN12C renal): 8.8 µM
- TGI (KM12 colon): 12 µM
- TGI (PC-3 prostate): 5.97 µM
- TGI (CCRF-CEM leukemia): 6.02 µM
- TGI (NCI-H23 lung): 2.74 µM
- TGI (HCT-15 colon): 6.98 µM
- TGI (HOP-92 NSCLC): 4.74 µM
- TGI (UACC-62 melanoma): 3.32 µM
- TGI (SF-268 CNS): 6.74 µM
